Test results published in ChEMBL document CHEMBL2406941, “Discovery of 'molecular switches' within a GIRK activator scaffold that afford selective GIRK inhibitors” (Bioorg Med Chem Lett, 2013).

Experiment: Activation of GIRK (unknown origin)
Parameters: species or system Homo sapiens

For `C[C@@H]1O[C@@H](O[C@H]2[C@H](Oc3cc(O)c4c(c3)O[C@H](c3ccc(O)cc3)CC4=O)O[C@H](CO)[C@@H](O)[C@@H]2O)[C@H](O)[C@H](O)[C@H]1O` [NARINGIN], the EC50 was greater than 100 µM.
